In patent publication US20240173419A1, “CDK2 DEGRADERS AND USES THEREOF” (Kymera Therapeutics, Inc., priority 2022, published 2024):

Biological target: T1, CDK2 (Homo sapiens, UniProt P24941)
T1 construct: endogenous in cells; host or cells: MKN1 cells
Test: CDK2 degradation in MKN1 cells (AlphaLISA)
Type: cell-based
Set-up: key to CDK2 degradation 14 h: Mean external-Abs DC50 (nM): A (<100 nM); B (≥100-500 nM); C (>500-1000 nM); D (>1000 nM); E (not achieved)
Details: 14 h incubation; for DC50: read-out: CDK2 degradation 14 h: Mean external-Abs DC50
Outline: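 MKN1 cells (2e4/well) treated 14 h at 37° C with 11-point 1:5 dilutions (0.001 nM-10 μM, 0.1% DMSO). CDK2 in lysates quantified by AlphaLISA, no-cell background subtracted; DC50 from four-parameter logistic fit.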

Row | Structure (SMILES) | CDK2 degradation 14 h: Average Dmax % | DC50 | CDK2 degradation 14 h: Mean external-Abs DC50 (nM)
1 | Cc1cc(S(=O)(=O)C2CC3(CCN(CC4CCN(c5ccc6c(c5F)n(C)c(=O)n6C5CCC(=O)NC5=O)CC4)CC3)C2)ccc1Nc1cc2cnc(Cl)cc2n(C2CCCC2)c1=O (stereo not drawn) [I-825] | D (D (<25%)) | > 1 µM | –
2 | Cc1cc(S(=O)(=O)C2CC3(CCN(CCN4CCN(c5ccc6c(c5F)n(C)c(=O)n6C5CCC(=O)NC5=O)CC4)CC3)C2)ccc1Nc1ncc2cc(Cl)c(=O)n(C3CCCC3)c2n1 (stereo not drawn) [I-826] | B (B (>50% -75%)) | < 0.1 µM | –
3 | Cc1cc(S(=O)(=O)N[C@H](C)CO[C@H]2CC[C@H](CN3CCN(c4ccc5c(c4F)n(C)c(=O)n5C4CCC(=O)NC4=O)CC3)CC2)ccc1Nc1ncc2ccc(=O)n(C3CCCC3)c2n1 (stereo partly drawn) [I-827] | A (A (>75% o)) | < 0.1 µM | –
4 | Cc1cc(S(=O)(=O)N[C@@H](C)CO[C@H]2CC[C@H](CN3CCN(c4ccc5c(c4F)n(C)c(=O)n5C4CCC(=O)NC4=O)CC3)CC2)ccc1Nc1ncc2ccc(=O)n(C3CCCC3)c2n1 (stereo partly drawn) [I-828] | A (A (>75% o)) | < 0.1 µM | –
5 | Cc1cc(S(=O)(=O)N2CCC(N3CCC(F)(CN(C)c4ccc5c(c4F)n(C)c(=O)n5C4CCC(=O)NC4=O)CC3)CC2)ccc1Nc1ncc2ccc(=O)n(C3CCCC3)c2n1 (stereo not drawn) [I-829] | D (D (<25%)) | – | E
6 | Cc1cc(S(=O)(=O)NC2CC(N3CCN(CC4CCN(c5ccc6c(c5F)n(C)c(=O)n6C5CCC(=O)NC5=O)CC4)CC3)C2)ccc1Nc1ncc(C(F)(F)F)c(N2CCCC(C)(O)C2)n1 (stereo not drawn) [I-830] | A (A (>75% o)) | < 0.1 µM | –
7 | Cc1cc(S(=O)(=O)NC2CC(N3CCN(CC4CCN(c5ccc6c(c5F)n(C)c(=O)n6C5CCC(=O)NC5=O)CC4)CC3)C2)ccc1Nc1ncc(C(F)(F)F)c(N2CCCC(C)(O)C2)n1 (stereo not drawn) [I-831] | A (A (>75% o)) | < 0.1 µM | –
8 | Cc1cc(S(=O)(=O)NC2CC(N3CCN(CC4CCN(c5ccc6c(c5F)n(C)c(=O)n6C5CCC(=O)NC5=O)CC4)CC3)C2)ccc1Nc1ncc2cc(Cl)c(=O)n(C3CCCC3)c2n1 (stereo not drawn) [I-832] | A (A (>75% o)) | < 0.1 µM | –
9 | Cc1cc(S(=O)(=O)NC2CC(N3CCN(CC4CCN(c5cccc6c5n(C)c(=O)n6C5CCC(=O)NC5=O)CC4)CC3)C2)ccc1Nc1ncc(C(F)(F)F)c(N2CCCC(C)(O)C2)n1 (stereo not drawn) [I-834] | A (A (>75% o)) | < 0.1 µM | –
10 | Cc1cc(S(=O)(=O)C2CC3(CCN(CC4CCN(c5ccc6c(c5F)n(C)c(=O)n6C5CCC(=O)NC5=O)CC4)CC3)C2)ccc1Nc1nc(N2CCCC(C)(O)C2)c2c(ccn2C)n1 (stereo not drawn) [I-835] | D (D (<25%)) | > 1 µM | –
11 | Cc1cc(S(=O)(=O)N2CC3(CCN(CC4CCN(c5ccc6c(c5F)n(C)c(=O)n6C5CCC(=O)NC5=O)CC4)CC3(F)F)C2)ccc1Nc1ncc2ccc(=O)n(C3CCCC3)c2n1 (stereo not drawn) [I-836] | B (B (>50% -75%)) | 0.1 to 0.5 µM | –
12 | Cc1cc(S(=O)(=O)C2CC3(CCN(CC4CCN(c5ccc6c(c5F)n(C)c(=O)n6C5CCC(=O)NC5=O)CC4)CC3)C2)ccc1Nc1ncc2cc(Cl)c(=O)n(C(C)C(C)(C)O)c2n1 (stereo not drawn) [I-837] | D (D (<25%)) | > 1 µM | –
13 | Cc1cc(S(=O)(=O)C2CC3(CCN(CC4CCN(c5cccc6c5n(C)c(=O)n6C5CCC(=O)NC5=O)CC4)CC3)C2)ccc1Nc1ncc2cc(Cl)c(=O)n(C(C)C(C)(C)O)c2n1 (stereo not drawn) [I-838] | D (D (<25%)) | > 1 µM | –
14 | Cc1cc(S(=O)(=O)C2CC3(CCN(CC4CCN(c5ccc6c(c5F)n(C)c(=O)n6C5CCC(=O)NC5=O)CC4)CC3)C2)ccc1Nc1ncc(C2CC2)c(N2CCCC(C)(O)C2)n1 (stereo not drawn) [I-839] | D (D (<25%)) | > 1 µM | –
15 | Cc1cc(S(=O)(=O)C2CC3(CCN(CC4CCN(c5ccc6c(c5F)n(C)c(=O)n6C5CCC(=O)NC5=O)CC4)CC3)C2)ccc1Nc1ncc(C(F)(F)F)c(N2CCC(C(C)(C)O)C2)n1 (stereo not drawn) [I-840] | B (B (>50% -75%)) | < 0.1 µM | –
16 | Cc1cc(S(=O)(=O)C2CC3(CCN(CC4CCN(c5cccc6c5n(C)c(=O)n6C5CCC(=O)NC5=O)CC4)CC3)C2)ccc1Nc1ncc(C(F)(F)F)c(N2CCC(C(C)(C)O)C2)n1 (stereo not drawn) [I-841] | A (A (>75% o)) | < 0.1 µM | –
17 | Cc1cc(S(=O)(=O)C2CC3(CCN(CC4CCN(c5cccc6c5n(C)c(=O)n6C5CCC(=O)NC5=O)CC4)CC3)C2)ccc1Nc1ncc(C(F)(F)F)c(N2CCC(C(C)(C)O)C2)n1 (stereo not drawn) [I-842] | A (A (>75% o)) | < 0.1 µM | –

Row | Structure (SMILES) | CDK2 degradation 14 h: Average Dmax % | DC50 | CDK2 degradation 14 h: Mean external-Abs DC50 (nM)
18 | Cc1cc(S(=O)(=O)NC(C)COC2CCC(CN3CCN(c4ccc5c(c4F)n(C)c(=O)n5C4CCC(=O)NC4=O)CC3)CC2)ccc1Nc1ncc2cc(Cl)c(=O)n(C(C)C(C)(C)O)c2n1 (stereo not drawn) [I-843] | D (D (<25%)) | > 1 µM | –
19 | Cc1cc(S(=O)(=O)NC(C)COC2CCC(CN3CCN(c4ccc5c(c4F)n(C)c(=O)n5C4CCC(=O)NC4=O)CC3)CC2)ccc1Nc1ncc(C(F)(F)F)c(N2CCCC(C)(O)C2)n1 (stereo not drawn) [I-844] | A (A (>75% o)) | < 0.1 µM | –
20 | Cc1cc(S(=O)(=O)NC(C)COC2CCC(CN3CCN(c4ccc5c(c4F)n(C)c(=O)n5C4CCC(=O)NC4=O)CC3)CC2)ccc1Nc1ncc(C(F)(F)F)c(C2CCC(C)(O)CC2)n1 (stereo not drawn) [I-845] | B (B (>50% -75%)) | 0.1 to 0.5 µM | –
21 | Cc1cc(S(=O)(=O)NC(C)COC2CCC(CN3CCN(c4ccc5c(c4F)n(C)c(=O)n5C4CCC(=O)NC4=O)CC3)CC2)ccc1Nc1ncc(C(F)(F)F)c(N2CCCC(C)(O)C2)n1 (stereo not drawn) [I-846] | A (A (>75% o)) | < 0.1 µM | –
22 | Cc1cc(S(=O)(=O)NC2CC(N3CCN(CC4CN(c5cccc6c5n(C)c(=O)n6C5CCC(=O)NC5=O)C4)CC3)C2)ccc1Nc1ncc(C(F)(F)F)c(C2CCC(C)(O)CC2)n1 (stereo not drawn) [I-847] | A (A (>75% o)) | < 0.1 µM | –
23 | Cc1cc(S(=O)(=O)NC(C)COC2CCC(CN3CC(c4ccc5c(c4F)n(C)c(=O)n5C4CCC(=O)NC4=O)C3)CC2)ccc1Nc1ncc(C(F)(F)F)c(N2CCCC(C)(O)C2)n1 (stereo not drawn) [I-848] | A (A (>75% o)) | < 0.1 µM | –
24 | Cc1cc(S(=O)(=O)C2CC3(CCN(CC4CCN(c5ccc6c(c5F)n(C)c(=O)n6C5CCC(=O)NC5=O)CC4)CC3)C2)ccc1Nc1ncc(C(F)(F)F)c(N2CCC(C)C(C)(O)C2)n1 (stereo not drawn) [I-849] | B (B (>50% -75%)) | < 0.1 µM | –
25 | Cc1cc(S(=O)(=O)NC(C)COC2CCC(CN3CC(c4cccc5c4n(C)c(=O)n5C4CCC(=O)NC4=O)C3)CC2)ccc1Nc1ncc(C(F)(F)F)c(N2CCCC(C)(O)C2)n1 (stereo not drawn) [I-850] | B (B (>50% -75%)) | < 0.1 µM | –
26 | Cc1cc(S(=O)(=O)NC(C)COC2CCC(CN3CCN(c4cccc5c4n(C)c(=O)n5C4CCC(=O)NC4=O)CC3)CC2)ccc1Nc1ncc(C(F)(F)F)c(N2CCCC(C)(O)C2)n1 (stereo not drawn) [I-851] | A (A (>75% o)) | < 0.1 µM | –
27 | Cc1cc(S(=O)(=O)C2CC3(CCN(CCOC4CN(c5ccc6c(c5F)n(C)c(=O)n6C5CCC(=O)NC5=O)C4)CC3)C2)ccc1Nc1ncc(C(F)(F)F)c(N2CCCC(C)(O)C2)n1 (stereo not drawn) [I-853] | B (B (>50% -75%)) | 0.1 to 0.5 µM | –
28 | Cc1cc(S(=O)(=O)C2CC3(CCN(CCOC4CN(c5cccc6c5n(C)c(=O)n6C5CCC(=O)NC5=O)C4)CC3)C2)ccc1Nc1ncc(C(F)(F)F)c(N2CCCC(C)(O)C2)n1 (stereo not drawn) [I-854] | B (B (>50% -75%)) | 0.1 to 0.5 µM | –
29 | Cn1c(=O)n(C2CCC(=O)NC2=O)c2ccc(N3CCC(CN4CCC5(CC4)CC(S(=O)(=O)c4ccc(Nc6ncc(C(F)(F)F)c(N7CCCC(C)(O)C7)n6)c(Cl)c4)C5)CC3)c(F)c21 (stereo not drawn) [I-855] | B (B (>50% -75%)) | < 0.1 µM | –
30 | COCc1cnc(Nc2ccc(S(=O)(=O)C3CC4(CCN(CC5CCN(c6ccc7c(c6F)n(C)c(=O)n7C6CCC(=O)NC6=O)CC5)CC4)C3)cc2C)nc1N1CCCC(C)(O)C1 (stereo not drawn) [I-856] | D (D (<25%)) | > 1 µM | –
31 | Cc1cc(S(=O)(=O)NC(C)COC2CCC(CN3CCN(c4ccc5c(c4F)n(C)c(=O)n5C4CCC(=O)NC4=O)CC3)CC2)ccc1Nc1ncc(C(F)(F)F)c(N2CCC(C(C)(C)O)C2)n1 (stereo not drawn) [I-857] | A (A (>75% o)) | < 0.1 µM | –
32 | Cc1cc(S(=O)(=O)NC(C)COC2CCC(CN3CCN(c4ccc5c(c4F)n(C)c(=O)n5C4CCC(=O)NC4=O)CC3)CC2)ccc1Nc1ncc(C(F)(F)F)c(N2CCC(C(C)(C)O)C2)n1 (stereo not drawn) [I-858] | A (A (>75% o)) | < 0.1 µM | –
33 | Cc1cc(S(=O)(=O)NC2CCN(CC3(C)CN(c4ccc(C5CCC(=O)NC5=O)c(Cl)c4)C3)CC2)ccc1Nc1ncc(C(F)(F)F)c(N2CCC[C@](C)(O)C2)n1 (stereo partly drawn) [I-910] | B (B (>50% -75%)) | 0.1 to 0.5 µM | –
